Test results: ChEMBL document CHEMBL1201862, “PubChem BioAssay data set” (2004)
Activity calls are given as the source filed them.

Experiments:
[1] = target: Potassium voltage-gated channel subfamily KQT member 2 (Rattus norvegicus, UniProt O88943); experiment: blockers of KCNQ2 channel current – cell-based, automated electrophysiology, set II, rat KCNQ2, dose response (AID 588637); type: functional
[2] = inhibition of ARNT PAS-B/TACC3 complex formation – biochemical, AlphaScreen, cherry-picked samples, confirmation (AID 651703); type: functional, Homo sapiens;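 note: His-tagged ARNT PAS-B domain paired with GST-TACC3 E629A dimer coactivator fragment; potency of inhibitors that break up the complex and lower AlphaScreen signal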
Leucine aminopeptidase = target: T1, Leucine aminopeptidase (Plasmodium falciparum 3D7, UniProt Q8IL11); experiment: P. falciparum M17LAP inhibitors, primary screen, biochemical, fluorogenic H-Leu-NHMec substrate, 1536-well (AID 1619); type: functional
T1 sequence (Q8IL11 whole entry): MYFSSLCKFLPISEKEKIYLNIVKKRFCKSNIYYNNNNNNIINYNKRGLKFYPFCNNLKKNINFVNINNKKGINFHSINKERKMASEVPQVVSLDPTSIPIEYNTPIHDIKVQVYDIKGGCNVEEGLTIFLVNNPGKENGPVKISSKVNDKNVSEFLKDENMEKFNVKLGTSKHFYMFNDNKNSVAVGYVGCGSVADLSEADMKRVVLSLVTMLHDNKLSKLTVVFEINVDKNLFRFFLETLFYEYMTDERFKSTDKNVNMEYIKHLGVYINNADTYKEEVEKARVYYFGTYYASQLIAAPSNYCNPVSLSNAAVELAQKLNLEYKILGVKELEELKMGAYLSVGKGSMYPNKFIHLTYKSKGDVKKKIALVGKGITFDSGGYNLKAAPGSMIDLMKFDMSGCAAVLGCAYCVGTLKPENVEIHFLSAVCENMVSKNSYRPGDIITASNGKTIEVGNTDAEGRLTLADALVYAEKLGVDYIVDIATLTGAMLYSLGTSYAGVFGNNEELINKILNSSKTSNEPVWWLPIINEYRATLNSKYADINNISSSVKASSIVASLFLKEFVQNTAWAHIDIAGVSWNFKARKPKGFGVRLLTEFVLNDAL

Streptococcus = experiment: GAS UMAA2166 growth inhibition – luminescence, BacTiterGlo, counter-screen for streptokinase expression inhibitor project, dose response (AID 1915); type: functional, organism-based;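 note: potency for reduction of bacterial viability or growth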
[3] = test system: Streptococcus sp. 'group A'; experiment: Streptococcus pyogenes SK(-)GAS viability under kanamycin – luminescence, BacTiterGlo, confirmation, counter-screen for streptokinase expression inhibitor project, dose response (AID 1900); type: functional, organism-based
Streptokinase A = target: T2, Streptokinase A (Streptococcus pyogenes serotype M1, UniProt P10520); experiment: viability-normalized secreted streptokinase activity reduction – plasminogen activation absorbance, OD405, dose response (AID 1914); type: functional, Streptococcus pyogenes M1 GAS;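 note: secreted streptokinase activity via plasminogen activation per viability signal from cell pellet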
T2 sequence (P10520 whole entry): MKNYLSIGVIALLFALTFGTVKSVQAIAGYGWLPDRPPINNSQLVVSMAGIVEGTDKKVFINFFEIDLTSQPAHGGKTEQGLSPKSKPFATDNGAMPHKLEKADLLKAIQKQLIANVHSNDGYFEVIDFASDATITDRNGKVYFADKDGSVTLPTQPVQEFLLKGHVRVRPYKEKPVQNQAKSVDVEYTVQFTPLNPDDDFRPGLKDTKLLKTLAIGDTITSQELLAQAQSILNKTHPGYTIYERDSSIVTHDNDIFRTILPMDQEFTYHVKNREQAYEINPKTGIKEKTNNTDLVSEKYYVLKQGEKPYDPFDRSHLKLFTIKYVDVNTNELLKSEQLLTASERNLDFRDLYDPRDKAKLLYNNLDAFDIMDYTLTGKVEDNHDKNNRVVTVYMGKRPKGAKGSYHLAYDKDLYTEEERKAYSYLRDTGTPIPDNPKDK

Escherichia coli [4] = experiment: microbe, parasite or virus in culture
Escherichia coli [5] = experiment: microbe, parasite or virus in culture; remark: listed apart in the source
[6] = target: T3, Serine/threonine-protein phosphatase (Candida dubliniensis (strain CD36 / CBS 7987 / NCPF 3949 / NRRLY-17841) (Yeast), UniProt B9W6M3); experiment: blockers of CaCl2-induced CDRE-lacZ signaling – S. cerevisiae, luminescence, secondary, dose response (AID 2388); type: functional, cell-based;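 note: yeast reporter cells carrying a calcineurin-responsive lacZ construct stimulated with calcium chloride; luminescent beta-galactosidase reporter signal in whole cells rather than isolated phosphatase activity; potency for inhibition where a drop in reporter signal means calcineurin blockade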
T3 sequence (B9W6M3 whole entry): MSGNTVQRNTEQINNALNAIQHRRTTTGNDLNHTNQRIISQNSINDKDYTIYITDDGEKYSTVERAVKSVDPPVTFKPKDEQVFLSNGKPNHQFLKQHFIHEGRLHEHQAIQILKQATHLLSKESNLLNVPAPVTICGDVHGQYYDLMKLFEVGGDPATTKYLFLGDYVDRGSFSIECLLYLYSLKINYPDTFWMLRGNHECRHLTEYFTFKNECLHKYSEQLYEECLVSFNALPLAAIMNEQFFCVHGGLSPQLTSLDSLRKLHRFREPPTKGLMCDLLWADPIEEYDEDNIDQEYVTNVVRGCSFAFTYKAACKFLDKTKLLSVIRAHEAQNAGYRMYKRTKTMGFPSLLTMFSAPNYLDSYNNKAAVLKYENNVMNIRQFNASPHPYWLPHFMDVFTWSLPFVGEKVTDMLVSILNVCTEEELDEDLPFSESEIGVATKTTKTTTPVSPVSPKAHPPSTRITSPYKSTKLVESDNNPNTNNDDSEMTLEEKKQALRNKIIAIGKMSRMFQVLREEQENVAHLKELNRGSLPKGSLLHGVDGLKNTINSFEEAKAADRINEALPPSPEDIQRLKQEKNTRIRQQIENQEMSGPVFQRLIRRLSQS

[7] = NIH-3T3 fibroblast cytotoxicity, dose response, cytotoxicity control, cell-based, fluorescence, Alamar Blue, secondary assay (AID 2327); type: functional;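 note: NIH-3T3 mouse fibroblasts cultured with fluconazole at 8 µg/mL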
[8] = target: ATP-dependent molecular chaperone HSP82 (Candida albicans (strain WO-1) (Yeast), UniProt C4YTQ8); experiment: steroid-induced GRE reporter decrease in yeast – S. cerevisiae, luminescence, Hsp90 inhibitor project, dose response (AID 2400); type: functional, cell-based;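 note: beta-galactosidase luminescence from glucocorticoid response element reporter as proxy for Hsp90 function; inhibitor potency where signal loss means Hsp90 inhibition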
Sequence of ATP-dependent molecular chaperone HSP82 (C4YTQ8 whole entry): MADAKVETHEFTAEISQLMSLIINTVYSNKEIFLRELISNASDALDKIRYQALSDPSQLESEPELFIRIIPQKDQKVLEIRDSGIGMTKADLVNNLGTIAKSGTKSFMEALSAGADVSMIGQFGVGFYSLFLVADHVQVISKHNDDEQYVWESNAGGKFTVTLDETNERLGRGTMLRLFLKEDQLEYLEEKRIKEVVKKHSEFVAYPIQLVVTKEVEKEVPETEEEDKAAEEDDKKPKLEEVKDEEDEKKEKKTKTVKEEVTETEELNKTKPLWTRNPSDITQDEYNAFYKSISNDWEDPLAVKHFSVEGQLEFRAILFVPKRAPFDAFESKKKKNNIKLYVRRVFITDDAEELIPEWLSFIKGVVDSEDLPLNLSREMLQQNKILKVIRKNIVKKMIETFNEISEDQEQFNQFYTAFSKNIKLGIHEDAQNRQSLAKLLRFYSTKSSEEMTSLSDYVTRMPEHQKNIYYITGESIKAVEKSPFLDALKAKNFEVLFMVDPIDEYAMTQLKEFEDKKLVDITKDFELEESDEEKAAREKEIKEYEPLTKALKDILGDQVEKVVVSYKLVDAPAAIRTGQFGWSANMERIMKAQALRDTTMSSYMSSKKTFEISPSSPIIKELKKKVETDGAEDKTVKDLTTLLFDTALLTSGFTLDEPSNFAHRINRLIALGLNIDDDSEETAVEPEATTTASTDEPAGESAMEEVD

[9] = fluconazole-exposed Candida albicans growth modulators – fluorescence, retest, confirmation (AID 2467); type: functional, cell-based
[10] = target: Ras and Rab interactor 1/Tyrosine-protein kinase ABL1 (Homo sapiens, UniProt P00519+Q13671); type: functional;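 note: biochemical TR-FRET dose-response test measuring inhibition of binding between Rin1 and Abl proteins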
[11] = target: T4, High affinity choline transporter 1 (Homo sapiens, UniProt Q9GZV3); experiment: human choline transporter blockers, potency – cell-based, 10-point CRC, membrane potential dye, dose response (AID 588401); type: functional;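 note: membrane potential dye fluorescence of choline-evoked depolarization via CHT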
T4 sequence (Q9GZV3 whole entry): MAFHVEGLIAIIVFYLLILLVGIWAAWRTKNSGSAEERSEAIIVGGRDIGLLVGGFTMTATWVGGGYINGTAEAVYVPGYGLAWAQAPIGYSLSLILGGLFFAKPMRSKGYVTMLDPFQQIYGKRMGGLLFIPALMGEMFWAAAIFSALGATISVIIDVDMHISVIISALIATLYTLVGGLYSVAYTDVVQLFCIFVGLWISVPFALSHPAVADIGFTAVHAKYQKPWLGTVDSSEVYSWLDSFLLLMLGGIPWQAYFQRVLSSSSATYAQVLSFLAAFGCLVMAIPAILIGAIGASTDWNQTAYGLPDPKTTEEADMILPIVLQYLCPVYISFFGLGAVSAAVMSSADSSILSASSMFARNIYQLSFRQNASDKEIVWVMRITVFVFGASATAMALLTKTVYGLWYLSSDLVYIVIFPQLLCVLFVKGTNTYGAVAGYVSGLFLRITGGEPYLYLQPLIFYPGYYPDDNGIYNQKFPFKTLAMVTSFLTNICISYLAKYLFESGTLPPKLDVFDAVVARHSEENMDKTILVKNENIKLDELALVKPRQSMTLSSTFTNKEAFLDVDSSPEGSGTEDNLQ

[12] = A cytotoxicity screen of small molecule inhibitors of the PhoP region in Salmonella typhi identified in the primary screen. [Related pubchem assays: 1850, 1864, 1985 ]; type: functional
[13] = target: T4, High affinity choline transporter 1; experiment: human choline transporter blockers, potency – cell-based, 5-point CRC, membrane potential dye, dose response (AID 504840); type: functional
[14] = target: Photoreceptor-specific nuclear receptor (Homo sapiens, UniProt Q9Y5X4); type: functional, cell-based;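 note: CHO-S cells with Gal4-NCOR and VP16-NR2E3 two-hybrid luciferase reporter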
Sequence of Photoreceptor-specific nuclear receptor (Q9Y5X4 whole entry, the tested form may be a part): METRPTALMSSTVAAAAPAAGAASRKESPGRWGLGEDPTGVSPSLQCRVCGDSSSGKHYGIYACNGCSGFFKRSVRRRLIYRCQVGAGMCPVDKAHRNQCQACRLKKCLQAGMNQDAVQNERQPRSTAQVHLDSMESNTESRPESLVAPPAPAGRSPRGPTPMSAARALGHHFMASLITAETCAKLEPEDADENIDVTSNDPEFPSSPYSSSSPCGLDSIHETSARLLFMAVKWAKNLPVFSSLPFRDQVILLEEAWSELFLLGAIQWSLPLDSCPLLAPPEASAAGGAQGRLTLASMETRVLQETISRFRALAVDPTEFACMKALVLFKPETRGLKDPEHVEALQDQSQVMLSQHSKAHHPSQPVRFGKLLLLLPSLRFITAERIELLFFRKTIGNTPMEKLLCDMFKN

[15] = Trypanosoma cruzi growth suppression in host cells – NIH3T3 host cells, beta-gal luminescence, confirmation (AID 2044); type: functional, cell-based;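 note: intracellular parasites grown in NIH/3T3 mouse fibroblasts as host cells; luminescent beta-galactosidase reporter signal from transgenic T. cruzi replicating inside host cells; inhibitors lower the luminescence signal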
[16] = Luminescence Cell-Based Dose Response HTS to Identify Inhibitors of 5'UTR Stem-Loop Driven Prion Protein mRNA Translation in H4 Neuroglioblastoma Cells. [Related pubchem assays: 1827 (Project Summary), 1813 (Primary HTS)]; type: functional
[17] = NIH3T3 cell viability loss – ATP luminescence, mouse fibroblasts, counter-screen, dose response (AID 2010); type: functional, cell-based;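 note: cells exposed to compound for about 90 hours before reading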
[18] = luciferase reporter signal suppression in cells – H4 neuroglioma cells, luminescence, dose response (AID 1990); type: functional, cell-based
INS1 = experiment: INS-1E survival protection against cytokine death – cell-based, luminescence, retest, dose response (AID 449756); type: functional; conditions: Rattus norvegicus;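 note: cell death triggered by IL-1 beta plus TNF-alpha plus IFN-gamma mixture; protective hits raise ATP signal compared with cytokine alone wells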
[19] = alpha-synuclein stem-loop luciferase translation blockers – H4 neuroglioma cells, luminescence, confirmation (AID 1988); type: functional, cell-based
[20] = Luminescence Cell-Based Dose Retest to Confirm Inhibitors of Cancer Stem Cells. [Related pubchem assays (depositor defined):AID2717, AID2721]; type: functional; conditions: Homo sapiens
[21] = target: T5, ATP-dependent translocase ABCB1 (Homo sapiens, UniProt P08183); experiment: P-gp JC-1 efflux blockade concentration-response – Jurkat-DNR cells, flow cytometry, set 2, dose response (AID 504569); type: functional; conditions: read-out: EC50_MICROM_;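 note: potency of pump inhibitors that raise cellular JC-1 green fluorescence up to the nicardipine level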
T5 sequence (P08183 whole entry): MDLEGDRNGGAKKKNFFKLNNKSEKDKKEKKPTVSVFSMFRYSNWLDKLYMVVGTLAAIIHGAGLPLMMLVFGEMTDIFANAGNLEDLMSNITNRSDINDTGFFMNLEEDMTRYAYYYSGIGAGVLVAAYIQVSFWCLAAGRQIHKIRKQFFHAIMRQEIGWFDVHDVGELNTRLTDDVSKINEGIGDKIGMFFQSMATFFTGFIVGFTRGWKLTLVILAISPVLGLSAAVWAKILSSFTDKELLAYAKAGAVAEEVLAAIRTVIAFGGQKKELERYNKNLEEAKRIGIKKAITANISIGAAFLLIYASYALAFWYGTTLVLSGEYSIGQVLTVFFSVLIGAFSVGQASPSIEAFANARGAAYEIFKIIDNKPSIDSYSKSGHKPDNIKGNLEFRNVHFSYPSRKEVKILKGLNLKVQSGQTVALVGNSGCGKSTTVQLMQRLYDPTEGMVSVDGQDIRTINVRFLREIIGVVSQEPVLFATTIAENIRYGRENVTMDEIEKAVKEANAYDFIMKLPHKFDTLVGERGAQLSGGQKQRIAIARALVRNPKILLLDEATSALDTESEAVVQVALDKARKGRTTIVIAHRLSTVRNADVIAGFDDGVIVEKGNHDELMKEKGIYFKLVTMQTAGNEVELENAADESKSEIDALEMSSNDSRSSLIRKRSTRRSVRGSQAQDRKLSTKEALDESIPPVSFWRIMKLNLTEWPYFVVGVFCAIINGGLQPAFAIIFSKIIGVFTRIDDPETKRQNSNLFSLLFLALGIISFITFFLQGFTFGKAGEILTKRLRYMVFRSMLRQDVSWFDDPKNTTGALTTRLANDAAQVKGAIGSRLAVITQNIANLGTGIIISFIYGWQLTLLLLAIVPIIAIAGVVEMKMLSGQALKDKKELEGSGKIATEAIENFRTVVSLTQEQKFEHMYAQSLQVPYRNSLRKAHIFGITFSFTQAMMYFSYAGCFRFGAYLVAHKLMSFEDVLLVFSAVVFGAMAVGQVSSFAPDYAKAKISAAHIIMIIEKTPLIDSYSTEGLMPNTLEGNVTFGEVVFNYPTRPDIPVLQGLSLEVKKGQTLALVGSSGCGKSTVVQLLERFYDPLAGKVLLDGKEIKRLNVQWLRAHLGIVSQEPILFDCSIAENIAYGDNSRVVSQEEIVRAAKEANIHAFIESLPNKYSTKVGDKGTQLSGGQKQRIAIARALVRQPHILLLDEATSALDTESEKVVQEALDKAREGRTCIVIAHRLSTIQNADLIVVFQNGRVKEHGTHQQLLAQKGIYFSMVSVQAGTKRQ

[22] = target: T5, ATP-dependent translocase ABCB1; experiment: inhibition of BCRP-mediated JC-1 efflux – Ig-MXP3 cells, flow cytometry, set 2, dose response (AID 504566); type: functional; conditions: read-out: EC50_MICROM_;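 note: flow cytometry median green fluorescence of retained JC-1 dye; potency of efflux pump inhibition measured as rising substrate retention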
[23] = viability of HCT116 lacking mutant beta-catenin – cell-based, human colon tumor, dose response (AID 1045); type: functional;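 note: HCT116 colon tumor cells with beta catenin knocked out; cells exposed to compound for 60 hours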
HEK293 [24] = experiment: cells; conditions: Homo sapiens
HEK293 [25] = experiment: cells; type: functional, cell-based; conditions: Homo sapiens
[26] = viability of PTEN-deleted HCT116 cells – cell-based, HCT116 PTEN knockout, dose response (AID 1047); type: functional;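 note: HCT116 colon tumor cells with PTEN knocked out; cells exposed to compound for 60 hours before readout; potency for loss of cell viability measured by luminescence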
HEK293 [27] = experiment: inhibition of NOD1-driven NF-kB reporter – cell-based, luminescence, uHTS, primary screen (AID 1578); type: functional; conditions: Homo sapiens
HEK293 [28] = experiment: cells; type: functional, cell-based; conditions: Homo sapiens; remark: listed apart in the source
HEK293 [29] = experiment: NOD2 signaling inhibitors in MDP-stimulated cells, cell-based, uHTS, luminescence (AID 2001); type: functional; conditions: Homo sapiens
HEK293 [30] = experiment: cells; conditions: Homo sapiens; remark: listed apart in the source

Sequence of Potassium voltage-gated channel subfamily KQT member 2 (O88943 whole entry, the tested form may be a part): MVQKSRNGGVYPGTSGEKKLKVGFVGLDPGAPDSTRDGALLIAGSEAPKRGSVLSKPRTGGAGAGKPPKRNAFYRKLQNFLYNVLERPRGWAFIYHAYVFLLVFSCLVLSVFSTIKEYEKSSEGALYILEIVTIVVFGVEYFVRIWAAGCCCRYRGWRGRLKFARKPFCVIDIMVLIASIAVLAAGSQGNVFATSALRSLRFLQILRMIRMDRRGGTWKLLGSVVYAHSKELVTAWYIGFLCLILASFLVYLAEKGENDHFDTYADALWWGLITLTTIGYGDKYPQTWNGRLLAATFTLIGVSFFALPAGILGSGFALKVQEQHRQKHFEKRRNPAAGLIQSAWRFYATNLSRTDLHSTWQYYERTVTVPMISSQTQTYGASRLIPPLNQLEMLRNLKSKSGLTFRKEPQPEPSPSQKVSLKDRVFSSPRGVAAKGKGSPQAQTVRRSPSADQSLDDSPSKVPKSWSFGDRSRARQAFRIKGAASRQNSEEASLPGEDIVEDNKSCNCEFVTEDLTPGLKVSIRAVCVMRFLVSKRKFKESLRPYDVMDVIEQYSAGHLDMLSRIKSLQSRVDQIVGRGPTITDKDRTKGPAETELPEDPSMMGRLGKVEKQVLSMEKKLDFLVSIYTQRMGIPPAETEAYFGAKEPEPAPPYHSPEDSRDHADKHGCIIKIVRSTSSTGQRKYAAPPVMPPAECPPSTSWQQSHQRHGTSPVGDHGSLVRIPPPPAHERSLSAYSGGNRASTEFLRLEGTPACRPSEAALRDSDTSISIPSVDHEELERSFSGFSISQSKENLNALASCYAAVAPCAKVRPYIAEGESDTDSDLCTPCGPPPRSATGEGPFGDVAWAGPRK

COc1ccc2cc(C(c3nnnn3CCc3ccccc3)N3CCCC(C)C3)c(=O)[nH]c2c1 (stereo not drawn)
IC50 [1]: 2.7 µM (active)

COC(=O)C(Cc1ccccc1)NCC(=O)Nc1cccc(Cl)c1C (stereo not drawn)
IC50 [1]: 1.57 µM (active)

O=C(O)COc1ccccc1/C=N/NC(=O)c1cccc(S(=O)(=O)Nc2cccc(Cl)c2)c1
AC50 [2]: 73.8 µM (active)
IC50 (Leucine aminopeptidase): 21.3 µM (active)

Cc1cc(-c2c(C)[nH]n(-c3ccc(Cl)cc3)c2=O)n(-c2ccc(Cl)cc2)n1
EC50 (Streptococcus): 62.8 µM (active)
EC50 [3]: 17.8 µM (active)
EC50 (Streptokinase A): > 150 µM (not active)
AC50 (Escherichia coli [4]): 46.2 µM (active)

O=C(c1ccccc1F)N1C(=O)c2cccc3cccc1c23
AC50 (Escherichia coli [4]): 38.6 µM (active)

Cc1cccc(OCC(=O)N2CCOCC2)c1
AC50 (Escherichia coli [4]): 37.1 µM (active)
AC50 (Escherichia coli [5]): 103 µM (active)

CC(CC(=O)Nc1ncc([N+](=O)[O-])s1)c1ccccc1 (stereo not drawn)
EC50 [6]: > 180 µM (inactive)
EC50 [7]: > 150 µM (inactive)
EC50 [8]: > 160 µM (inactive)
EC50 [9]: 0.76 µM (active)

CCc1nnc(NC(=O)CCc2nc(C3=CCN(C)CC3)no2)s1
IC50 [10]: 3.81 µM (active)

NS(=O)(=O)c1ccc(CNc2ccc3ccccc3n2)cc1
IC50 [11]: 3.57 µM (active)
EC50 [12]: > 50 µM (active)
IC50 [13]: 3.76 µM (active)

C[C@@H]1CCCCO[C@@H](CN(C)C(=O)Nc2ccc3c(c2)OCO3)[C@@H](C)CN([C@@H](C)CO)C(=O)c2cc(N(C)C)ccc2O1
AC50 [2]: 114 µM (active)

CSc1ccccc1OCc1cc(C(=O)N2CCNC(=O)C2)no1
IC50 [10]: 6.88 µM (active)

COc1ccc(-n2c(C)cc(C(=O)COC(=O)c3ccc(O)cc3O)c2C)cc1
IC50 [14]: 5.7 µM (active)

Cc1ccc(C(=O)O/N=C/c2c(N3CCOCC3)n(C)c3ccccc23)cc1
EC50 [6]: > 180 µM (inactive)
EC50 [15]: 0.799 µM (active)
EC50 [16]: 10.9 µM (active)
EC50 [7]: > 160 µM (inconclusive)
EC50 [17]: 3.44 µM (active)
EC50 [8]: > 160 µM (inactive)
EC50 [18]: > 120 µM (not active)
EC50 [9]: 0.419 µM (active)
AC50 (INS1): 0.915 µM (active)
EC50 [19]: > 120 µM (not active)

O=C(NC(=O)N1CCN(c2cccc(Cl)c2)CC1)c1ccc(Cl)cc1
AC50 [20]: 0.263 µM (active)
IC50 [14]: 3.05 µM (active)

Cc1ccc(CNC(=O)c2ccccc2NS(=O)(=O)c2ccc(Cl)nc2)cc1
IC50 [11]: 4.22 µM (active)
IC50 [13]: 7.31 µM (active)

O=C(c1ccco1)N1CCN(c2cc(-c3ccccc3)nc3cc(-c4ccc(Cl)cc4)nn23)CC1
EC50 [21]: 2.6 µM (active)
EC50 [22]: 0.99 µM (active)

O=C(c1ccc(Cl)cc1)N1CCN(c2cc(-c3ccccc3)nc3cc(-c4cccc(Cl)c4)nn23)CC1
EC50 [21]: 1.74 µM (active)
EC50 [22]: 1.99 µM (active)

Cc1cc(C)cc(NC(=O)/C=C/c2ccc([N+](=O)[O-])s2)c1
EC50 [23]: 6.03 µM (active)
EC50 (HEK293 [24]): > 59.7 µM (inactive)
IC50 (HEK293 [25]): 9.79 µM (active)
EC50 [26]: 3.75 µM (active)
EC50 (HEK293 [27]): > 20 µM (inactive)
IC50 (HEK293 [28]): > 20 µM (inactive)
IC50 (HEK293 [29]): > 20 µM (inactive)
EC50 (HEK293 [30]): > 59.7 µM (inactive)
